Data as given in ChEMBL document CHEMBL3792327, “Discovery and modelling studies of natural ingredients from Gaultheria yunnanensis (FRANCH.) against phosphodiesterase-4” (Eur J Med Chem, 2016).

Columns and labels:
[1] = target: 3',5'-cyclic-AMP phosphodiesterase 4D (Homo sapiens, UniProt Q08499); assay: Inhibition of PDE4D2 catalytic domain (86 to 413 residues) (unknown origin) using [3H]-cAMP as substrate after 15 mins by liquid scintillation counting method
[2] = species: Homo sapiens; assay: Selectivity index, ratio of IC50 for PDE5A1 catalytic domain (535 to 860 residues) (unknown origin) to IC50 for PDE4D2 catalytic domain (86 to 413 residues) (unknown origin)
[3] = species: Homo sapiens; assay: Selectivity index, ratio of IC50 for PDE2A3 catalytic domain (222 to 904 residues) (unknown origin) to IC50 for PDE4D2 catalytic domain (86 to 413 residues) (unknown origin)
[4] = target: cAMP and cAMP-inhibited cGMP 3',5'-cyclic phosphodiesterase 10A (Homo sapiens, UniProt Q9Y233); assay: Inhibition of PDE10A2 catalytic domain (448 to 789 residues) (unknown origin) using [3H]-cGMP/[3H]-cAMP as substrate after 15 mins by liquid scintillation counting method
Sequence of cAMP and cAMP-inhibited cGMP 3',5'-cyclic phosphodiesterase 10A (Q9Y233 whole entry, the tested form may be a part): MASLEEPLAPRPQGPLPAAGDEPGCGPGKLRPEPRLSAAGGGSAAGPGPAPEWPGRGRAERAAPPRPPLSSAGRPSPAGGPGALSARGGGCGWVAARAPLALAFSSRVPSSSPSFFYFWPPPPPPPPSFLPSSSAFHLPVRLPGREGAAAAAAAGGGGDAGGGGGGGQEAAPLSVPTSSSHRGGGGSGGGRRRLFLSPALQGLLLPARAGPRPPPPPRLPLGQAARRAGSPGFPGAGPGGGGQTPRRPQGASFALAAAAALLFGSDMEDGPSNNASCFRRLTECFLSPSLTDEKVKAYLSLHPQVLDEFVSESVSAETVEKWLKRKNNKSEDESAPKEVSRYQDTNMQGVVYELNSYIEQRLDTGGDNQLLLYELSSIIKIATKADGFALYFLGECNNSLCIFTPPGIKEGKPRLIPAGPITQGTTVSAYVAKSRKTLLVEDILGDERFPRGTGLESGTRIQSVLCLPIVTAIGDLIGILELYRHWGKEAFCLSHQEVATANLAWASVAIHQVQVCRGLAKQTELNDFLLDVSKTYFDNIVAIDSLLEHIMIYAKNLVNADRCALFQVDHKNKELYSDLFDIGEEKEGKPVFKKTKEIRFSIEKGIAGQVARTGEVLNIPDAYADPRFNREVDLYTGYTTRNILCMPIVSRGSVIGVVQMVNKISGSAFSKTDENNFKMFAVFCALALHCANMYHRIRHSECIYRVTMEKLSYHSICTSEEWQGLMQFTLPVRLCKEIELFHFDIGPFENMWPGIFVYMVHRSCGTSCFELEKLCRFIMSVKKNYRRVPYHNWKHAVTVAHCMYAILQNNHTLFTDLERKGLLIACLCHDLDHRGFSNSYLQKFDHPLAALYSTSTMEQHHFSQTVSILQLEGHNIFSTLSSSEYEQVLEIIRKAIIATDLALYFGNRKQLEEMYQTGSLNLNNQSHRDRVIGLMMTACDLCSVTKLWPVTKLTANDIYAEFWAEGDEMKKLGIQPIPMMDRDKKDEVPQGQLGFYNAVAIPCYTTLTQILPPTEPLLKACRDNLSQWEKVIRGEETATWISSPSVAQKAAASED

[5] = target: cGMP-specific 3',5'-cyclic phosphodiesterase (Homo sapiens, UniProt O76074); assay: Inhibition of PDE5A1 catalytic domain (535 to 860 residues) (unknown origin) using [3H]-cGMP as substrate after 15 mins by liquid scintillation counting method
[6] = target: cGMP-dependent 3',5'-cyclic phosphodiesterase (Homo sapiens, UniProt O00408); assay: Inhibition of PDE2A3 catalytic domain (222 to 904 residues) (unknown origin) using [3H]-cGMP/[3H]-cAMP as substrate after 15 mins by liquid scintillation counting method
Sequence of cGMP-dependent 3',5'-cyclic phosphodiesterase (O00408 whole entry, the tested form may be a part): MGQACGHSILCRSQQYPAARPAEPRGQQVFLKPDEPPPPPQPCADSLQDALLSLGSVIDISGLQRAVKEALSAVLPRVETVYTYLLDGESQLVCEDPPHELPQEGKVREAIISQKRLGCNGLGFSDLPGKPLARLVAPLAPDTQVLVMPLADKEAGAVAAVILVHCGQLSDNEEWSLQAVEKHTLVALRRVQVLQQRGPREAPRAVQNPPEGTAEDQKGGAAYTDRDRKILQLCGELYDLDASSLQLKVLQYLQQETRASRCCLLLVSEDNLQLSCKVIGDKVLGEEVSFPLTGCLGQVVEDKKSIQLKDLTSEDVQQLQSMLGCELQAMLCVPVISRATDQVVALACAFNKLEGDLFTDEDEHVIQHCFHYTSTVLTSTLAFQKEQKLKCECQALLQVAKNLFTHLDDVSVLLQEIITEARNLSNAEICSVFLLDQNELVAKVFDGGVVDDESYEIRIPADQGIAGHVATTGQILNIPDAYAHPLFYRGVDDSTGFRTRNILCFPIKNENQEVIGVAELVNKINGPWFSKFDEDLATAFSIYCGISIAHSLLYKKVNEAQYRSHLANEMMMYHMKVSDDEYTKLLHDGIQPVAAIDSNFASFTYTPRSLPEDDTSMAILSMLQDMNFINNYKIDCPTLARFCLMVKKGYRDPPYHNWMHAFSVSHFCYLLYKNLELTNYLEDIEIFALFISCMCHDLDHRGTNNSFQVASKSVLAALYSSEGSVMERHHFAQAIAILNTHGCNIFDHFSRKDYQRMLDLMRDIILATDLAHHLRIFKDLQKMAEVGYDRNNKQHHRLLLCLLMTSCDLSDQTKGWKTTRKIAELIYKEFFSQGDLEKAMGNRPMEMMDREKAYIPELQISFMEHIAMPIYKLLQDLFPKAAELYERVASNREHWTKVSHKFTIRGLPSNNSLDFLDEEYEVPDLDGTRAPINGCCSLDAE

[7] = target: Dual specificity calcium/calmodulin-dependent 3',5'-cyclic nucleotide phosphodiesterase 1B (Homo sapiens, UniProt Q01064); assay: Inhibition of PDE1B2 catalytic domain (10 to 487 residues) (unknown origin) using [3H]-cGMP/[3H]-cAMP as substrate after 15 mins by liquid scintillation counting method
Sequence of Dual specificity calcium/calmodulin-dependent 3',5'-cyclic nucleotide phosphodiesterase 1B (Q01064 whole entry, the tested form may be a part): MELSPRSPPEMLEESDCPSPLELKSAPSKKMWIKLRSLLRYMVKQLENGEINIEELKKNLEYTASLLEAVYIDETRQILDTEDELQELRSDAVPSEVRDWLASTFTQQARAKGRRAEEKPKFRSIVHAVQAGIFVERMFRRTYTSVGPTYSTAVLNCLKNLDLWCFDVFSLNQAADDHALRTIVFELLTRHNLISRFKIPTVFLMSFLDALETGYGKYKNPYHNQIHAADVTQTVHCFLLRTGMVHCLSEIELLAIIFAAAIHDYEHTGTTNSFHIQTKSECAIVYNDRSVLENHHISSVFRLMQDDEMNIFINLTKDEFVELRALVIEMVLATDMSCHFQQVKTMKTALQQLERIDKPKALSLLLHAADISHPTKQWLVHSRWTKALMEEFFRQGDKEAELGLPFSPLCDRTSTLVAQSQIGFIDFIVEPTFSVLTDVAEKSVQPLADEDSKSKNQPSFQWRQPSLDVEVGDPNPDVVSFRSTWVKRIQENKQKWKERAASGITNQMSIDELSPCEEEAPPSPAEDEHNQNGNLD

[8] = species: Homo sapiens; assay: Selectivity index, ratio of IC50 for PDE10A2 catalytic domain (448 to 789 residues) (unknown origin) to IC50 for PDE4D2 catalytic domain (86 to 413 residues) (unknown origin)
[9] = species: Homo sapiens; assay: Selectivity index, ratio of IC50 for PDE1B2 catalytic domain (10 to 487 residues) (unknown origin) to IC50 for PDE4D2 catalytic domain (86 to 413 residues) (unknown origin)
[10] = target: High affinity cGMP-specific 3',5'-cyclic phosphodiesterase 9A (Homo sapiens, UniProt O76083); assay: Inhibition of PDE9A2 catalytic domain (181 to 506 residues) (unknown origin) using [3H]-cGMP/[3H]-cAMP as substrate after 15 mins by liquid scintillation counting method
Sequence of High affinity cGMP-specific 3',5'-cyclic phosphodiesterase 9A (O76083 whole entry, the tested form may be a part): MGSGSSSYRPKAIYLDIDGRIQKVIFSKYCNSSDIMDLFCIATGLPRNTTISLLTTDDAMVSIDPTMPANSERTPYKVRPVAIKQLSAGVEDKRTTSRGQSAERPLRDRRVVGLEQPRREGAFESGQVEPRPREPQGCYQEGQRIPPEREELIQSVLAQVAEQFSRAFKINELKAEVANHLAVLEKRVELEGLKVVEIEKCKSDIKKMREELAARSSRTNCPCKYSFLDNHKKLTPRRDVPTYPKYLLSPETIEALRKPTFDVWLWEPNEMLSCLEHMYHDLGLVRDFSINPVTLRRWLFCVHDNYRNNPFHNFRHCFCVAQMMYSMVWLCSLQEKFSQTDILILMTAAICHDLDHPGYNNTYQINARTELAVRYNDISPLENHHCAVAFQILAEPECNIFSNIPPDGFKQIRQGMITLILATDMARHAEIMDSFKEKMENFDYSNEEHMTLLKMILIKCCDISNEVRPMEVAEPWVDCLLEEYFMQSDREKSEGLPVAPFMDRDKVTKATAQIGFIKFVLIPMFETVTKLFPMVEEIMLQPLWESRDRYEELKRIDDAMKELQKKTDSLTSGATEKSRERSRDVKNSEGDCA

[11] = species: Homo sapiens; assay: Selectivity index, ratio of IC50 for PDE9A2 catalytic domain (181 to 506 residues) (unknown origin) to IC50 for PDE4D2 catalytic domain (86 to 413 residues) (unknown origin)

Sequence of 3',5'-cyclic-AMP phosphodiesterase 4D (Q08499 whole entry, the tested form may be a part): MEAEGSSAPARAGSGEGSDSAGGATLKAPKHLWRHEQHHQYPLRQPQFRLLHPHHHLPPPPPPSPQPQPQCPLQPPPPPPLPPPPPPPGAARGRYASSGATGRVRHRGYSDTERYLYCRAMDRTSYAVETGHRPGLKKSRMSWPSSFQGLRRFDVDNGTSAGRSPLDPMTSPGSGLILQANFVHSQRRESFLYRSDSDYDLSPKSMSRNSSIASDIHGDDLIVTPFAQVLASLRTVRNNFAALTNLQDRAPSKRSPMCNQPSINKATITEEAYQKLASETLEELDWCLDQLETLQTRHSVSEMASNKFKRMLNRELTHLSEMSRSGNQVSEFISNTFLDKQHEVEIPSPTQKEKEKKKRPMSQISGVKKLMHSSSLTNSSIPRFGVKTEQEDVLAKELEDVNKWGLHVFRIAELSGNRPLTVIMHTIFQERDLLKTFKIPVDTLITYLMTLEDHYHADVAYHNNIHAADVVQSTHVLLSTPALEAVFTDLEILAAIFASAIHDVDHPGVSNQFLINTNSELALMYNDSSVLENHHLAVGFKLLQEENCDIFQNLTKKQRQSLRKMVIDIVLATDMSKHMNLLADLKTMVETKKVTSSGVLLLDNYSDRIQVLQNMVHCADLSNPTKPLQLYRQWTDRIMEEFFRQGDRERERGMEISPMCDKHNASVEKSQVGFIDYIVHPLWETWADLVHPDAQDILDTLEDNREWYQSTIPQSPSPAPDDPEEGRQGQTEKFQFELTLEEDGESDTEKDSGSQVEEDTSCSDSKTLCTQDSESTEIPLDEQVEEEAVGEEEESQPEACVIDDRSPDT

`C=C1CC[C@]2(C(=O)O)CC[C@]3(C)C(=CC[C@@H]4[C@@]5(C)C[C@@H](O)[C@@H](O)C(C)(C)[C@@H]5CC[C@]43C)[C@@H]2[C@H]1C` was tested, and the IC50 [1] was greater than 20 µM.
`COc1cc([C@H]2Oc3c(OC)cc(CCCO)cc3[C@@H]2CO[C@@H]2OC[C@@H](O)[C@H](O)[C@H]2O)ccc1O` showed an IC50 [1] greater than 20 µM.
For `COc1cc(CCCO)cc(OC)c1O`, the IC50 [1] was greater than 20 µM.
`CC1=CC(=O)CC(C)(C)[C@]1(O)/C=C/[C@@H](C)O` gave an IC50 [1] greater than 20 µM.
In the case of `C=C1CC[C@]2(C(=O)O)CC[C@]3(C)C(=CC[C@@H]4[C@@]5(C)C[C@@H](O)[C@@H](OC(=O)/C=C\c6ccc(O)cc6)C(C)(C)[C@@H]5CC[C@]43C)[C@@H]2[C@H]1C`, the IC50 [1] is reported as 0.542 µM.
`C=C1CC[C@]2(C(=O)O)CC[C@]3(C)C(=CC[C@@H]4[C@@]5(C)C[C@@H](O)[C@@H](OC(=O)/C=C/c6ccc(O)cc6)C(C)(C)[C@@H]5CC[C@]43C)[C@@H]2[C@H]1C` gave a Ratio IC50 [2] of 16, a Ratio IC50 [3] greater than 204 and an IC50 [1] of 0.245 µM. It also gave an IC50 [4] greater than 20 µM, an IC50 [5] of 3.81 µM and an IC50 [6] greater than 50 µM. It also gave an IC50 [7] of 2.63 µM, a Ratio IC50 [8] greater than 82 and a Ratio IC50 [9] of 11. For the same compound, the IC50 [10] was 4.83 µM and the Ratio IC50 [11] was 20.
For `COc1cc([C@@H]2Oc3c(OC)cc(CCCO)cc3[C@H]2CO[C@@H]2OC[C@@H](O)[C@H](O)[C@H]2O)ccc1O`, the IC50 [1] was greater than 20 µM.
`COc1cc([C@H]2c3c(cc(OC)c(O)c3OC)C[C@@H](CO)[C@@H]2CO[C@@H]2OC[C@@H](O)[C@H](O)[C@H]2O)cc(OC)c1O` [LYONISIDE] was tested, and the IC50 [1] was greater than 20 µM.
`COc1cc([C@H]2c3cc(O)c(OC)cc3C[C@@H](CO)[C@@H]2CO[C@@H]2OC[C@@H](O)[C@H](O)[C@H]2O)ccc1O` gave an IC50 [1] greater than 20 µM.
